This is an account of results in paper PMC6100073, “Activation of Anthracene Endoperoxides in Leishmania and Impairment of Mitochondrial Functions” (Molecules : A Journal of Synthetic Chemistry and Natural …, 2018).

Read-outs that look alike come from different tables or passages of the source. Bounds are passed on as bounds.

Test [1] deals with Leishmania tarentolae promastigotes (LtP). Nature of the test: Resazurin viability assay in Leishmania tarentolae promastigotes. Format: cell-based. The protocol: Leishmania tarentolae promastigotes (LtP) strain P10 from Jena Bioscience (Jena, Germany) were cultivated in brain heart infusion (BHI) medium (37 g/L) that was supplemented with 5 mg/L hemin, 25,000 U/L penicillin and 25 mg/L streptomycin at 26 °C. LtP were always used one day after being passaged, when the cells were in the logarithmic growth phase. The cell count was determined by measuring the optical density (OD) at a wavelength of 600 nm using a U1100 photometer (Hitachi, Tokyo, Japan). The number of the cells was subsequently calculated according to a calibration curve.
(§1) LtP (2 × 10^6 cells/mL) in a mixture of YEM and PBS (1:1, v/v) containing 25,000 U/L penicillin, 25 mg/L streptomycin, and 6 µM hemin (YEM/PBS) were prepared. Aliquots of 200 µL of this suspension were distributed in 96-well plates. Control rows containing YEM/PBS (no activity) and with untreated LtP (100% activity) were also loaded on the plate. To the wells of third rows, compounds (leading to a final vehicle concentration of max. 2% dimethyl sulfoxide (DMSO) in the wells) were added. Subsequently, five 1:5 serial dilution steps were performed. The plates were incubated at 26 °C for 48 h. Following the incubation, 50 µL of a resazurin solution in PBS were added to each well, giving a final concentration of 20 µM. After 4 h of incubation, the fluorescence was measured at 560 nm excitation and 590 nm emission using a plate reader (Perkin Elmer Enspire, Germany). The resazurin assays with J774 cells were performed in analogy to the LtP resazurin assays. Aliquots of a J774 cell suspension in DMEM supplemented with 25,000 U/L penicillin, 25 mg/L streptomycin, and 10% FCS (heat-inactivated), giving a final cell concentration of 10^5 cells/mL, were distributed in the wells of the 96-well microplates. The cells were incubated for 24 h (37 °C, 5% CO2) to allow attachment. Then the medium was discarded and non-adherent cells were removed with 200 µL PBS per well. After the addition of DMEM, the compounds were added, and a serial dilution was performed. Control rows with DMEM (no activity) and with untreated J774 cells (100% activity) were also included. The plates were incubated again for 24 h at 37 °C and 5% CO2. Then the addition of resazurin and the measurement of fluorescence were carried out in analogy to the viability assays performed in LtP.
(§2) Calculations were carried out using Microsoft Excel (Microsoft). The graphs were created using Origin 6.1 (OriginLab Corporation, Northampton, MA, USA). The half maximal inhibitory concentrations (IC50) were determined from non-linear concentration–response curves using a four-parameter logistic model and expressed as the mean ± standard deviation (SD). Statistically significant differences of p <0.05 were identified using Students t-test.
Background: Resazurin is reduced to fluorescent resorufin, in cell work by metabolically active cells.

Another test concerns J774 macrophages. The test can be described thus: Resazurin viability assay in J774 macrophages. Format: cell-based. To be noted: Mus musculus, read-out: IC50 (µM) Mean ± SD J774. The protocol: The murine macrophage cell line J774A.1 (mouse, ATCC, TIB-67™) was cultivated in Dulbecco’s Modified Eagle Medium (DMEM) (high glucose, 1.5 g/L NaHCO3) supplemented with 25,000 IU/L penicillin, 25 mg/L streptomycin, and 10% FCS (heat-inactivated) in 50 mL TubeSpin bioreactors. The tubes were kept in an incubator at 37 °C and 5% CO2 on a roller culture apparatus (5 rpm). The cells were passaged twice a week, diluting them in a ratio of 1:10. The macrophages were used until passage 30. To determine the cell count, the cell suspension was resuspended and diluted 1:2 with PBS. After fixation of the cells by mixing the cell suspension 1:1 with a formaldehyde solution (2%, v/v), aliquots of the resulting suspension were transferred into a standard Neubauer chamber (VWR, Austria) and counted manually using a light microscope (Motic BA310, Austria) at a magnification of 400×.
as §1, with “The plates were incubated again for 24 h at 37 °C and 5% CO2.” left out
as §2

[2] abbreviates: Leishmania tarentolae, 48 h, resazurin assay, endpoint at 48 h, 2 × 10^6 LtP/mL, read-out: IC50 (µM) Mean ± SD LtP.
Where [3] appears, read: resazurin assay, endpoint at 48 h, 10^5 J774/mL.

As for `O=C1c2ccccc2C(=O)c2ccccc21` [AQ, anthraquinone, reference compound], the IC50 is 103 ± 17.8 µM in test [1] (setting [2]) and 117 ± 24.3 µM in the test on J774 macrophages (setting [3]).

As for `CC12OOC(C)(c3ccccc31)c1ccccc12` [AcEP1118, 9,10-dimethyl-9,10-dihydro-9,10-epidioxidoanthracene], the IC50 was 1 ± 0.73 µM in test [1] (setting [2]) and 4.34 ± 1.91 µM in the test with J774 macrophages (setting [3]).

Consider `c1ccc2cc3ccccc3cc2c1` [Ac, anthracene], for which the IC50 in test [1] (Leishmania tarentolae, 48 h, read-out: IC50 (µM) Mean ± SD LtP, resazurin assay, endpoint at 48 h, 2 × 10^6 LtP/mL) was > 400 µM; with J774 macrophages (J774, 48 h), > 400 µM.

Regarding `N=C(N)c1ccc(OCCCCCOc2ccc(C(=N)N)cc2)cc1` [Pen, pentamidine, reference compound], the IC50 in test [1] (setting [2]) is < 1 µM; in test [1] (resazurin assay, endpoint at 48 h, 2 × 10^6 LtP/mL, read-out: IC50 (µM) Mean ± SD LtP), 0.84 ± 0.43 µM; in the test with J774 macrophages (setting [3]), 14.4 ± 6.48 µM.

Regarding `CC12OOC(c3ccccc31)c1ccccc12` [AcEP1129, 9-methyl-9,10-dihydro-9,10-epidioxidoanthracene], the IC50 came to 0.61 ± 0.21 µM in test [1] (setting [2]) and 0.9 ± 0.28 µM in the test on J774 macrophages (setting [3]).

On to `CCc1ccc2c(c1)C1OOC2c2ccccc21` (stereo not drawn) [AcEP1130, 2-ethyl-9,10-dihydro-9,10-epidioxidoanthracene], for which the IC50 in test [1] (setting [2]) is 0.22 ± 0.09 µM; in the test on J774 macrophages (setting [3]), 7.82 ± 0.47 µM.

Consider `c1ccc2c(c1)C1OOC2c2ccccc21` [AcEP1117, 9,10-dihydro-9,10-epidioxidoanthracene], for which the IC50 in test [1] (setting [2]) turned out to be 5.72 ± 1.92 µM; in the test on J774 macrophages (setting [3]), 43.8 ± 36.1 µM.
